Measurements as given in ChEMBL document CHEMBL1156774, “Design of O-acetylserine sulfhydrylase inhibitors by mimicking nature” (J Med Chem, 2010).
pKd: −log10 of the molar value.

Assays:
[1] = biological target: T1, Cysteine synthase (Haemophilus influenzae (strain ATCC 51907 / DSM 11121 / KW20 / Rd)) (UniProt P45040); test: (§1) Binding affinity to Haemophilus influenzae O-acetylserine sulfhydrylase expressed in Escherichia coli BL21 (DE3) by fluorescence emission spectra analysis
T1 sequence (whole entry): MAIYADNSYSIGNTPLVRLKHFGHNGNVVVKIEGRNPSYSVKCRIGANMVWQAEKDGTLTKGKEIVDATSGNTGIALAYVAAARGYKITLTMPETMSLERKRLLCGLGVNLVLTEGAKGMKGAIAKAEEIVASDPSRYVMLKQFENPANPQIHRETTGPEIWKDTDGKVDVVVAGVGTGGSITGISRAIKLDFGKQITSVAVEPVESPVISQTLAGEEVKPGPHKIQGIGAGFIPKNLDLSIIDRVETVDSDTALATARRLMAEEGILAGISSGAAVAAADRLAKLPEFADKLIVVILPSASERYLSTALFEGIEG

[2] = biological target: T2, Cysteine synthase (Haemophilus influenzae (strain ATCC 51907 / DSM 11121 / KW20 / Rd), UniProt P45040); test: as §1
T2 sequence (P45040 whole entry): T1 sequence (whole entry)

Which results are given for H-MNLGI-OH?
Kdiss [1]: 570 µM; pKd [2]: 3.24

Which results are given for H-MNVPI-OH?
Kdiss [1]: 3330 µM; pKd [2]: 2.48

Which results are given for H-MNYSI-OH?
Kdiss [1]: 60.8 µM; pKd [2]: 4.22

Which Kdiss [1] does the source give for H-MNDGI-OH here?
The Kdiss was 1030 µM.

And the pKd [2]?
Its pKd is 2.99.

H-MNEGI-OH was tested. Which Kdiss [1] did it give?
Its Kdiss is 2270 µM.

What about the pKd [2] of the same substance?
Its pKd is 2.64.
